# Experimental data reported in patent US7449478B2, “Indole compounds” (National Health Research Institutes, priority 2003, dated 2008).
# Test system: PPAR
# Assay: PPAR agonist activity / binding to PPAR, tetraethylthiuram disulfide alone or combined
# Settings: tetraethylthiuram disulfide alone
smiles,measurement,value
CCN(CC)C(=S)SSC(=S)N(CC)CC [tetraethylthiuram disulfide],PPAR agonist activity,poor PPAR agonist
